Several values for one entry are separate records, joined by “and”; a condition that tells them apart may be missing. Identical values can stand only once. Like-named read-outs stand apart in the source and are kept apart here.
Tests used:
HIV-1 tat protein [1] = test: direct filter binding assay of tat to TAR RNA (saturation binding, Scatchard analysis); conditions: for affinity of tat binding compared with wild type: gel retardation and filter binding assays (data not shown); for Kd: direct filter binding, HIV-1 TAR from saturation binding/Scatchard plot, mutants estimated from half-maximal binding, read-out: Kd (dissociation constant of tat binding)
Procedure: The results shown graphically in FIG. 4 are from experiments in which binding reactions (500 ul) contained 40 nMolar^32 P uniformly radiolabelled TAR RNA at a specific activity of 100,000 Ci/mole; 0.5 ug calf thymus DNA; 0.2 ug yeast TRNA; 40 units RNAsin (Promega); 50mm Tris-HCl pH 7.9 and 20 mM KCl. Reaction mixtures were set up on ice and increasing amounts of HIV-1 tat protein were added and the reaction mixtures were filtered through prewashed nitrocellulose filters (Millipore 0.45 uM pore size). The filters were dried and counted by liquid scintillation counting. The fraction of radiolabeled RNA bound was plotted against HIV-1 tat concentration.
Binding was measured by a filter-binding assay as described below under "Method", using monomeric tat protein prepared by CNBr cleavage of a human growth hormone-tat fusion protein expressed in E. coli. Reactions for saturation binding contained labeled TAR RNA [SEQ ID NO: 1] or antisense TAR RNA [SEQ ID NO: 6] at 10 nm and between 0 to 300 nM purified tat protein. Antisense TAR RNA was used as a control, since antisense TAR is unable to form stable complexes with tat in gel-retardation assays (Dingwall et al., 1989).
The stoichiometry of the tat/TAR interaction was determined by varying the TAR RNA concentrations over a wide range, while keeping the tat protein concentration constant near the Kd. For this Scatchard analysis, the tat protein concentration was held constant at 40 nM and the RNA concentration was varied between 7nM and 320 nM. The total amount of labeled RNA was kept constant in the binding reactions, but the specific activity of the RNA was varied. […]
Tat protein was prepared either from beta-galactosidase-tat fusion proteins (6) or from human growth-hormone-tat fusion proteins (85) using an improved method. In brief, inclusion body pellets containing the fusion protein were solubilized in 7M GdHCl, 50 mM Tris-HCl pH8.0, 2 mM EDTA, 2mM DTT and the fusion protein was purified to near homogeneity by ion-exchange chromatography on Q-Sepharose and S-Sepharose (Pharmacia) in buffers containing […], 50 mM Tris-HCl pH8.0, 2mM EDTA, 2mM DTT. The cysteine residues were protected by disulphide-exchange with 20 mM 2-hydroxyethyldisulphide (86), and the protein was cleaved by cyanogen bromide (6). The basic tat protein was then separated from the acidic human growth hormone peptides by ion-exchange chromatography on Q-Sepharose and S-Sepharose in 6M Urea. The protecting groups were then removed from the protein by addition of 10 mM DTT and the protein refolded by stepwise dialysis against 6 m Urea, 5M Urea,3M Urea, 1M Urea and 0M Urea in a buffer containing 50 mM Tris-HCl pH8.0, 100 uM DTT, 10 uM ZnCl2 Tat protein refolded in this manner elutes as a monomer from Superose 12 columns (Pharmacia) and migrates as a single band on polyacrylamide gels. Protein prepared by both methods behaved comparably in binding assays.
A wide variety of parameters affecting the binding of tat protein to TAR RNA were studied and binding conditions were optimized. Binding of tat to TAR has a distinct pH optimum at pH 8.0, but good binding is observed between pH 7.5 and pH 8.5. Tat/TAR complexes are very sensitive to ionic strength. […] Addition of Zn^+2, Cd^+2, Ca^+2, Mg,^+2, Fe^+2 or Fe^+3 ions to the reaction mixtures […]. However, the binding reaction is sensitive to EDTA at greater than 0.1 mM EDTA. Complex formation is also somewhat temperature sensitive. Optimal binding is observed at 0°C. Between 15° C. and 30° C. there is a 30% reduction in complex formation. […]

HIV-1 tat protein [2] = test: competition filter binding assay, mutant TAR transcripts against labelled HIV-1 TAR RNA (FIG. 7, Table 1); conditions: 20 nM TAR RNA, 40 nM tat protein; for IC50: read-out: D1/2 (concentration of competitor RNA that reduces binding of HIV-1 tat to HIV-1 TAR RNA to 50%)
Procedure: Binding reactions (500 ul) were set up on ice and contained 80 pM ^32 P-labeled TAR RNA (17,600 dpm, 200 uCi/n mol) and unlabeled TAR RNA to give a final concentration of 20 nM, 0.5 ug calf thymus DNA, 0.2 ug yeast tRNA, 40 units RNAsin (Promega), 50 mM Tris HCl and 20 mM KCl. After addition of competitor RNA, binding was initiated by addition of HIV-1 tat protein to a final concentration of 400 ng/ml (40 nM). The binding reaction mixtures were then filtered under reduced pressure through pre-washed nitrocellulose filters (Millipore 0.45 uM pore size) and filters were dried and counted by liquid scintillation counting.
The fraction of^32 P-labeled TAR RNA bound was plotted against the final concentration of competitor RNA. In these experiments reactions included 20 nM TAR and 40 nM tat protein and increasing amounts of unlabeled competitor RNA from 40 nm to 6 uM. […] In theory, 40 nM tat will bind 50% of the input TAR RNA (D1/2) when the total TAR RNA concentration is 56 nM.
For competition experiments, binding reactions (500 ul) were set up on ice and contained 80 pM ^32 P-labeled TAR RNA (17,600 dpm, 200 uCi/n mol) and unlabeled TAR RNA to give a final concentration of 20 nM, 0.5 ug calf thymus DNA, 0.2 ug yeast TRNA, 40 units RNAsin (Promega), 50 mM Tris-HCl pH 7.9 and 20 mM KCl. After addition of 0 to 6 uM competitor RNA, binding was initiated by addition of HIV- 1 tat protein to a final concentration of 400 ng/mi (40 nM). The binding reaction mixtures were then filtered under reduced pressure through pre-washed nitrocellulose filters (Millipore 0.45 u pore size) and filters were dried and counted by liquid scintillation counting.
KRel is the ratio of the D1/2 values for HIV-1 TAR and competitor RNA.

[3] = system: tat-dependent promoter activity of viral LTR carrying the TAR sequence; test: trans-activation CAT assay, HeLa cells cotransfected with LTR-CAT test plasmid and tat expression plasmid; type: cell-based; conditions: HeLa cells cotransfected with tat plasmid
Text: If tat binding to TAR is necessary for trans-activation, then viral LTRs carrying TAR sequences with low affinities for tat should always have reduced tat-dependent promoter activity in vivo. Site-directed mutagenesis experiments on TAR have shown that trans-activation requires sequences in both the U-rich bulge (10, 11) and the loop sequence (12, 27, 28). These observations have now been extended, using TAR mutations with known affinities for tat in transfection experiments, the results of which are shown in FIG. 8. The experiments used either HeLa cells (FIG. 8a-d) or a constitutive producer of tat, HeLa/C63/tat cells (FIG. 8e-f).
The TAR sequences depicted in FIG. 3 [SEQ ID NO: 1-11] were introduced into a test plasmid, pD5-3-3, which carries a LTR and approximately 300 bases of 5' flanking sequences derived from the infectious proviral clone NL4 (29). The bacterial chloramphenicol acetyltransferase (CAT) gene and SV40 intron and terminator sequence from pSV2-CAT (30) was inserted downstream of TAR by cloning into the HindIII site at +77. Trans-activation was measured either by cotransfection of HeLa cells with the test plasmids and the tat expression plasmid pC63-4-1 (6) (panels a-d in […]), or by transfection of the test plasmids alone into HeLa/C63/tat (clone 9) cells (panels e-h). […]

ASS: anti-sense lower stem, sense upper stem and loop sequences (GGGUUCCCUAGUUAGACCAGAUUUGAGCCUGGGAGCUCUCUGGCUAACCAGAGAGACCC; chemistry not given here)
affinity of tat binding compared with wild type (HIV-1 tat protein [1]): bind tat with wild-type affinities

G28 to C28: TAR point mutation expected to disrupt the top of the TAR stem/loop structure (GGGUCUCUCUGGUUAGACCAGAUUUGACCCUGGGAGCUCUCUGGCUAACUAGGGAACCC; chemistry not given here)
KRel (ratio of D1/2 values for HIV-1 TAR and competitor RNA) (HIV-1 tat protein [2]): 0.09
IC50 (HIV-1 tat protein [2]): 680 nM
Kd (HIV-1 tat protein [1]; listed as SEQ ID NO: 10): 100 nM
Kd (HIV-1 tat protein [1]): > 100 nM
trans-activation phenotype [3]: defective phenotype

G to U (loop): TAR RNA in which residues 32-34 are changed to uridine (U) (GGGUCUCUCUGGUUAGACCAGAUUUGAGCCUUUUAGCUCUCUGGCUAACUAGGGAACCC; RNA, backbone not given here)
KRel (ratio of D1/2 values for HIV-1 TAR and competitor RNA) (HIV-1 tat protein [2]): 0.97
IC50 (HIV-1 tat protein [2]): 66 nM
Kd (HIV-1 tat protein [1]): 25 nM

HIV-1 TAR (UUU): full length HIV-1 TAR RNA of 59 residues prepared by transcription, wild type, UUU bulge (GGGUCUCUCUGGUUAGACCAGAUUUGAGCCUGGGAGCUCUCUGGCUAACUAGGGAACCC; unmodified RNA) [reference compound]
KRel (ratio of D1/2 values for HIV-1 TAR and competitor RNA) (HIV-1 tat protein [2]): 1.00
IC50 (HIV-1 tat protein [2]): 64 nM
stoichiometry v, moles of RNA bound per mole of protein (HIV-1 tat protein [1]; Scatchard analysis, 40 nM tat, RNA 7-320 nM): approximately one
Kd (HIV-1 tat protein [1]; listed as HIV-1 TAR RNA): 12 nM
Kd (HIV-1 tat protein [1]; listed as TAR RNA): 12 nM
Kd (HIV-1 tat protein [1]; listed as TAR): 11.8 nM and 12 nM
Kd (HIV-1 tat protein [1]): 12 nM

SAS: anti-sense upper stem flanked by sense lower stem and loop sequences (GGGUCUCUCUGGUUAGCCAGAGAGCCUGGGAGCUCAAAUCUGGUCUAACUAGGGAACCC; chemistry not given here)
affinity of tat binding compared with wild type (HIV-1 tat protein [1]): bind tat with significantly reduced affinities

SSA: sense stem, antisense loop sequence (GGGUCUCUCUGGUUAGACCAGAUUUGAGCUCCCAGGCUCUCUGGCUAACUAGGGAACCC; chemistry not given here)
affinity of tat binding compared with wild type (HIV-1 tat protein [1]): bind tat with wild-type affinities

delta U (bulge): TAR RNA in which residues 23-25 are deleted (GGGUCUCUCUGGUUAGACCAGAGAGCCUGGGAGCUCUCUGGCUAACUAGGGAACCC; RNA, backbone not given here)
KRel (ratio of D1/2 values for HIV-1 TAR and competitor RNA) (HIV-1 tat protein [2]): 0.15
IC50 (HIV-1 tat protein [2]; listed as SEQ ID NO: 8): 290 nM
IC50 (HIV-1 tat protein [2]): 420 nM
Kd (HIV-1 tat protein [1]): > 70 nM
